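1) Cells in 96-well plates. 2) Compound, 48 h, 5 concentrations. 3) Linear interpolation between surrounding doses. 4) Unreached endpoint = highest concentration. The concentration for 50% growth inhibition is given as GI50.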 The source made the active and inactive calls. Cut-off read from the data, not from the text of the source: active = GI50 up to about 1.1 µM and inactive = higher.
Legend:
Assay in all cases: growth of human tumour cells (NCI), 48 h
[1] = tested on: ACHN
[2] = tested on: EKVX
[3] = tested on: RXF 393
[4] = tested on: COLO 205
[5] = tested on: MOLT-4
[6] = tested on: CAKI-1
[7] = tested on: UACC-62
[8] = tested on: A498
[9] = tested on: UO-31
[10] = tested on: HCT-15
[11] = tested on: NCI-H522
[12] = tested on: 786-0
[13] = tested on: NCI-H226
[14] = tested on: HCT-116
[15] = tested on: IGROV-1
[16] = tested on: SF-268
[17] = tested on: HOP-62
[18] = tested on: OVCAR-5

| SMILES | GI50 [1] | GI50 [2] | GI50 [3] | GI50 [4] | GI50 [5] | GI50 [6] | GI50 [7] | GI50 [8] | GI50 [9] | GI50 [10] [µM] | GI50 [11] | GI50 [12] | GI50 [13] | GI50 [14] | GI50 [15] | GI50 [16] | GI50 [17] | GI50 [18] |
| --- | --- | --- | --- | --- | --- | --- | --- | --- | --- | --- | --- | --- | --- | --- | --- | --- | --- | --- |
| NC(CCCC(N)P(=O)(O)O)P(=O)(O)O (stereo unspecified) | > 100 µM (inactive) | > 100 µM (inactive) | > 100 µM (inactive) | > 100 µM (inactive) | > 100 µM (inactive) | > 100 µM (inactive) | > 100 µM (inactive) | > 100 µM (inactive) | > 100 µM (inactive) | > 100 | > 100 µM (inactive) | > 100 µM (inactive) | > 100 µM (inactive) | > 100 µM (inactive) | > 100 µM (inactive) | – | – | – |
| O=c1nc(NC(c2ccccc2)(c2ccccc2)c2ccccc2)ccn1CCO | 48.5 µM (inactive) | 81.8 µM (inactive) | 6.52 µM (inactive) | > 100 µM (inactive) | 29.9 µM (inactive) | – | – | > 100 µM (inactive) | > 100 µM (inactive) | 63.5 | 51.5 µM (inactive) | > 100 µM (inactive) | > 100 µM (inactive) | 61.1 µM (inactive) | > 100 µM (inactive) | 66.4 µM (inactive) | > 100 µM (inactive) | > 100 µM (inactive) |
| O=C(Cc1ccccc1)NN1C(=O)C(Cl)C1c1ccc([N+](=O)[O-])cc1 (stereo unspecified) | > 100 µM (inactive) | > 100 µM (inactive) | 84.9 µM (inactive) | > 100 µM (inactive) | 53.2 µM (inactive) | > 100 µM (inactive) | > 100 µM (inactive) | – | > 100 µM (inactive) | 45.5 | 25.1 µM (inactive) | > 100 µM (inactive) | > 100 µM (inactive) | > 100 µM (inactive) | > 100 µM (inactive) | > 100 µM (inactive) | > 100 µM (inactive) | > 100 µM (inactive) |
| O=C1CC(O)(c2ccccc2)C(c2ccccc2)=C1c1ccccc1 (stereo unspecified) | 38 µM (inactive) | 40.9 µM (inactive) | 28.7 µM (inactive) | 17.6 µM (inactive) | 25.2 µM (inactive) | 31.3 µM (inactive) | 29.5 µM (inactive) | – | – | 32.3 | 17.7 µM (inactive) | 45 µM (inactive) | – | – | 44 µM (inactive) | 37.7 µM (inactive) | 38.2 µM (inactive) | > 100 µM (inactive) |
| C/C=C(\NC(=O)C(CCCCN)NC(=O)C(C)NC(=O)C1CSC(C)C(NC(=O)C2CSCC(NC(=O)C(C)NC(=O)C(N)C(C)CC)C(=O)NC(CCCCN)C(=O)NC(Cc3ccccc3)C(=O)NC(CC(C)C)C(=O)N2)C(=O)N2CCCC2C(=O)NCC(=O)N1)C(=O)NCC(=O)NC1CSCC2NC(=O)C(Cc3ccc(O)cc3)NC(=O)C(CSC=CNC2=O)NC(=O)C(CC(N)=O)NC(=O)C(Cc2ccccc2)NC1=O (stereo unspecified) | 65 µM (inactive) | 52.2 µM (inactive) | > 100 µM (inactive) | > 100 µM (inactive) | > 100 µM (inactive) | – | 37.6 µM (inactive) | – | – | > 100 | – | 35.6 µM (inactive) | – | > 100 µM (inactive) | > 100 µM (inactive) | 33.4 µM (inactive) | < 0.01 µM (active) | > 100 µM (inactive) |
| Brc1ccc(C[N+]23CN4CN(CN(C4)C2)C3)cc1 | 44.6 µM (inactive) | > 100 µM (inactive) | 17 µM (inactive) | 26.3 µM (inactive) | 20.5 µM (inactive) | – | 14.8 µM (inactive) | – | 50.5 µM (inactive) | 24.2 | 17.1 µM (inactive) | 30.6 µM (inactive) | – | 28.1 µM (inactive) | > 100 µM (inactive) | 40.2 µM (inactive) | > 100 µM (inactive) | – |
| CC(=O)Oc1ccc2c(-c3ccccc3)c(Oc3ccc(Cl)cc3)c(=O)oc2c1 | 16.9 µM (inactive) | 15.6 µM (inactive) | 18 µM (inactive) | – | 18.1 µM (inactive) | 18.3 µM (inactive) | – | 17 µM (inactive) | 14.8 µM (inactive) | 3.16 | 2.82 µM (inactive) | 16.4 µM (inactive) | 17.3 µM (inactive) | 14.9 µM (inactive) | 15.9 µM (inactive) | 6.17 µM (inactive) | 18.3 µM (inactive) | 17.9 µM (inactive) |
| CC1C[C@@H]2C(=O)NC(=O)[C@@H]2c2c1c1ccccc1n2C (stereo partly specified) | – | > 100 µM (inactive) | > 100 µM (inactive) | > 100 µM (inactive) | > 100 µM (inactive) | > 100 µM (inactive) | > 100 µM (inactive) | > 100 µM (inactive) | > 100 µM (inactive) | > 100 | > 100 µM (inactive) | > 100 µM (inactive) | > 100 µM (inactive) | – | > 100 µM (inactive) | > 100 µM (inactive) | > 100 µM (inactive) | – |
| Cc1ccc(C(=O)O)c(/C=C2\Cc3cc(C)cc(C)c3C2=O)c1 | 74 µM (inactive) | 66.7 µM (inactive) | 67.3 µM (inactive) | – | 53.2 µM (inactive) | > 100 µM (inactive) | 76 µM (inactive) | 81.1 µM (inactive) | 92.3 µM (inactive) | 53.1 | > 100 µM (inactive) | > 100 µM (inactive) | 40.5 µM (inactive) | 53.7 µM (inactive) | > 100 µM (inactive) | > 100 µM (inactive) | > 100 µM (inactive) | – |

From ChEMBL document CHEMBL1201862, “PubChem BioAssay data set” (2004)
